Activity calls are given as the source filed them. The rule behind the calls is not given here.
Columns and labels:
MCF7 [1] = assay: Cytotoxicity against human MCF7 cells after 24 hrs by MTT assay; assay type: functional, cell-based; conditions: for IC50: MCF7, 24 h
SGC-7901 [2] = assay: Cytotoxicity against human SGC7901 cells after 24 hrs by MTT assay; assay type: functional, cell-based; conditions: for IC50: SGC-7901, 24 h
GES1 = assay: Cytotoxicity against human GES-1 cells after 48 hrs by MTT assay; assay type: cell-based; conditions: for IC50: Homo sapiens, GES1, 48 h; for Activity: human, ges1, 48 h
MCF7 [3] = assay: Cytotoxicity against human MCF7 cells by MTT assay; assay type: functional, cell-based; conditions: TDE = time-dependent effect
SGC-7901 [4] = assay: Cytotoxicity against human SGC7901 cells by MTT assay; assay type: functional, cell-based; conditions: TDE = time-dependent effect
[5] = biological target: T1, Thioredoxin reductase 1, cytoplasmic (Homo sapiens) (UniProt Q16881); assay: Inhibition of TrxR in human HL60 cells using thioredoxin as substrate up to 24 hrs measured for 5 mins by UV-Vis spectrophotometric analysis; assay type: cell-based
T1 sequence (whole entry): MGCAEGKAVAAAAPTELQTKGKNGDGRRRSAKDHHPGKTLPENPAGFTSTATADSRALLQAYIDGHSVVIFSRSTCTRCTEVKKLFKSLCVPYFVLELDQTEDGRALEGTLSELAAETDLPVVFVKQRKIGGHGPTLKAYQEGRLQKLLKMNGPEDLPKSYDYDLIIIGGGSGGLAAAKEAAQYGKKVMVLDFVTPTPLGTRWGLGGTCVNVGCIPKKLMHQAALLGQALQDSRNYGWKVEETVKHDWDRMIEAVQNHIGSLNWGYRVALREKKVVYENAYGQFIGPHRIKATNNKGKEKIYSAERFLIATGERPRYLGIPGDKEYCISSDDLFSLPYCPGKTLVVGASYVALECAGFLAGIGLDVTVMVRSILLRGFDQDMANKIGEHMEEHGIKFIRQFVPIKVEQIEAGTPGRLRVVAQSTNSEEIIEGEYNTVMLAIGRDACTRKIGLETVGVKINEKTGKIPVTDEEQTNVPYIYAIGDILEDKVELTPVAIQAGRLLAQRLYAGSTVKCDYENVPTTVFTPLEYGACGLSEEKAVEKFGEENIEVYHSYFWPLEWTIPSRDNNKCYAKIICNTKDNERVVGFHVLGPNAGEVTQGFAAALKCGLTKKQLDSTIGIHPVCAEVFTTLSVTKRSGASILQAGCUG

HL-60 [6] = assay: Induction of ROS generation in human HL60 cells at 1.5 uM after 24 hrs in presence of ROS inhibitor NAC by DCFH-DA staining-based flow cytometry; assay type: functional, cell-based
HL-60 [7] = assay: Induction of ROS generation in human HL60 cells at 1.5 uM after 24 hrs in presence of antioxidant DTT by DCFH-DA staining-based flow cytometry; assay type: functional, cell-based
HL-60 [8] = assay: Induction of ROS generation in human HL60 cells at 1.5 uM after 24 hrs by DCFH-DA staining-based flow cytometry; assay type: functional, cell-based
HL-60 [9] = assay: Induction of cell death in human HL60 cells assessed as decrease in total GSH levels after 24 hrs by MTT assay; assay type: functional, cell-based
HL-60 [10] = assay: Induction of apoptosis in human HL60 cells assessed as DNA incision in bulk of cells at 0.75 to 1.5 uM after 24 hrs by Hoechst 33342 staining-based laser scanning confocal microscopic analysis; assay type: functional, cell-based
HL-60 [11] = assay: Induction of apoptosis in human HL60 cells assessed as less cell quantity at 0.75 to 1.5 uM after 24 hrs by Hoechst 33342 staining-based laser scanning confocal microscopic analysis; assay type: functional
HL-60 [12] = assay: Induction of mitochondrial membrane potential loss in human HL60 cells at 0.75 uM after 24 hrs by JC-1 staining-based flow cytometry (reference value: 24.3%); assay type: functional
HL-60 [13] = assay: Induction of mitochondrial membrane potential loss in human HL60 cells at 1.5 uM after 24 hrs by JC-1 staining-based flow cytometry (reference value: 24.3%); assay type: functional
Liver [14] = assay: Induction of mitochondrial dysfunction in Wistar rat liver assessed as swelling up to 30 uM for 60 mins; assay type: functional; conditions: mitochondria
Liver [15] = assay: Induction of mitochondrial dysfunction in Wistar rat liver assessed as swelling at 20 uM in presence of calcium related inhibitor cyclosporine A; assay type: functional; conditions: mitochondria
Liver [16] = assay: Induction of mitochondrial dysfunction in Wistar rat liver assessed as swelling at 20 uM in presence of calcium related inhibitor EGTA; assay type: functional; conditions: mitochondria
HL-60 [17] = assay: Induction of cell death in human HL60 cells at 1 to 1.5 uM after 24 hrs in presence of antioxidant NAC by trypan blue assay; assay type: functional, cell-based
HL-60 [18] = assay: Induction of cell death in human HL60 cells at 1 to 1.5 uM after 24 hrs in presence of antioxidant L-ascorbic acid by trypan blue assay; assay type: functional, cell-based
HL-60 [19] = assay: Induction of cell death in human HL60 cells at 1 to 1.5 uM after 24 hrs in presence of […] BSO by MTT assay; assay type: functional, cell-based
[20] = biological target: T2, Glutathione reductase, mitochondrial (Homo sapiens) (UniProt P00390); assay: Effect on glutathione reductase catalytic activity in human HL60 cells; assay type: cell-based
T2 sequence (whole entry): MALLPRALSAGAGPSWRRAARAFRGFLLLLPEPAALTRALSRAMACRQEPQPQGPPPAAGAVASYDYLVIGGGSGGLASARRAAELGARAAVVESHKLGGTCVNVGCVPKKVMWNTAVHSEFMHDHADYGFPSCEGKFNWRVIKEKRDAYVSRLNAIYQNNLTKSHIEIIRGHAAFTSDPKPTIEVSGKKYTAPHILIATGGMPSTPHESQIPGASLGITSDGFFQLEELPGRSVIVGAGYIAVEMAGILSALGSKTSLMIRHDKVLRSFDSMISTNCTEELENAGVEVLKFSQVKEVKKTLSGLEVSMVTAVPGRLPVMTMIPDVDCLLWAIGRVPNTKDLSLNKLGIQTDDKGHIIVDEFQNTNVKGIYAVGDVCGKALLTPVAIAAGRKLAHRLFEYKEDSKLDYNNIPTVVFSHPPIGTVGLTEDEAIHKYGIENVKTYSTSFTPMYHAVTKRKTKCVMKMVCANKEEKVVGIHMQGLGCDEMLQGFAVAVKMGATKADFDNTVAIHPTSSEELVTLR

HL-60 [21] = assay: Induction of cell death in human HL60 cells at 0.4 uM after 24 hrs in absence of BSO by MTT assay; assay type: functional, cell-based
[22] = biological target: T1, Thioredoxin reductase 1, cytoplasmic (Homo sapiens); assay: Inhibition of TrxR in human HL60 cells assessed as residual activity at 1.5 using thioredoxin as substrate measured for 5 mins by UV-Vis spectrophotometric analysis; assay type: cell-based
HL-60 [23] = assay: Induction of mitochondrial membrane potential loss in human HL60 cells at 0.75 uM after 24 hrs by JC-1 staining-based flow cytometry (reference value: 28.6%); assay type: functional
HL-60 [24] = assay: Induction of mitochondrial membrane potential loss in human HL60 cells at 1.5 uM after 24 hrs by JC-1 staining-based flow cytometry (reference value: 28.6%); assay type: functional

SMILES | Activity (MCF7 [1]) | IC50 (MCF7 [1]) | Activity (SGC-7901 [2]) | IC50 (SGC-7901 [2]) | IC50 (GES1) | Activity (GES1) | Activity (MCF7 [3]) | Activity (SGC-7901 [4]) | inhibition [5] | Activity (HL-60 [6]) | Activity (HL-60 [7]) | Activity (HL-60 [8]) | Activity (HL-60 [9]) | Activity (HL-60 [10]) | Activity (HL-60 [11]) | Activity (Liver [14]) | Activity (Liver [15]) | Activity (Liver [16]) | Activity (HL-60 [17]) | Activity (HL-60 [18]) | other results
Oc1ccccc1/C=N/c1ccc([As]2SCCCS2)cc1 | Dose-dependent effect | 5.7 µM | Dose-dependent effect | 7.69 µM | 3.55 µM | Dose-dependent effect | Tde | Tde | Dose-dependent effect | inactive | inactive | Active | Dose-dependent effect | Active | Active | Active | inactive | inactive | inactive | Active | Activity (HL-60 [12]): 49.1%; Activity (HL-60 [13]): 71%; Activity (HL-60 [19]): Active; Activity [20]: inactive; Activity (HL-60 [21]): Active; inhibition [22]: Dose-dependent effect
O=C(Nc1ccc([As]2SCCCS2)cc1)c1ccccc1O | Dose-dependent effect | 11.9 µM | Dose-dependent effect | 14.5 µM | 9.07 µM | Dose-dependent effect | Tde | Tde | Dose-dependent effect | inactive | inactive | Active | Dose-dependent effect | Active | Active | Active | inactive | inactive | inactive | Active | Activity (HL-60 [23]): 51.8%; Activity (HL-60 [24]): 71.8%; Activity (HL-60 [19]): Active; Activity [20]: inactive; Activity (HL-60 [21]): Active; inhibition [22]: Dose-dependent effect
